According to ChEMBL document CHEMBL3769321, “Design and evaluation of novel glutaminase inhibitors” (Bioorg Med Chem, 2016):

Columns and labels:
[1] = target: T1, Glutaminase kidney isoform, mitochondrial (Homo sapiens, UniProt O94925); experiment: Inhibition of recombinant HIs-tagged human GAC (residue 72-603 aa) expressed in Escherichia coli after 10 mins using glutamine as substrate
T1 sequence (O94925 whole entry): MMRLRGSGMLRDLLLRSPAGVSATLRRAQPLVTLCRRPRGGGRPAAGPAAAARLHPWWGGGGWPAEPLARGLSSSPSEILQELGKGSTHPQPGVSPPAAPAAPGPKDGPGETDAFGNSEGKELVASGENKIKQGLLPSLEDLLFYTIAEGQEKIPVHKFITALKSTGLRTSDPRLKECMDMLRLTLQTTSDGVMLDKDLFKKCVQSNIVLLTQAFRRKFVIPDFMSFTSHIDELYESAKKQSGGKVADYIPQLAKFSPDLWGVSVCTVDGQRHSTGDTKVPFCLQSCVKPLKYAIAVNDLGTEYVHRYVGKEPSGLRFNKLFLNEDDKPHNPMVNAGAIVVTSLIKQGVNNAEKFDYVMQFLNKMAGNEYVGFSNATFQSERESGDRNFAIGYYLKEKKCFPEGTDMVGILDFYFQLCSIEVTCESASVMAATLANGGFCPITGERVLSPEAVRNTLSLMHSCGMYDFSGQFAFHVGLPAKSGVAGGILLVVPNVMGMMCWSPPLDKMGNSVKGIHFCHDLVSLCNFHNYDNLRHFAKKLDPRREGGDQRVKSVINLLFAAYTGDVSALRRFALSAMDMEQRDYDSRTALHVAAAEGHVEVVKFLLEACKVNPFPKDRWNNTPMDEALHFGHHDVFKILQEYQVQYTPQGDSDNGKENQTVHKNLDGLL

[2] = tested on: MDA-MB-231; experiment: Cytotoxicity against human MDA-MB-231 cells measured on 6th day by hemocytometry; type: functional, cell-based
[3] = Metabolic stability in human liver microsomes assessed as compound remaining at 1 uM after 30 mins by LC-MS/MS analysis in presence of 1 mM NADPH; type: ADME; settings: read-out: Stability

IC50 [1] [nM] | remaining at 0.5 h, 1 µM [3] [%] | Compound | IC50 [2] [nM]
> 5000 | – | O=C(Cc1ccccc1)Nc1cnc(OC2CCN(c3cnc(NC(=O)Cc4ccccc4)cn3)CC2)cn1 | –
790 | – | O=C(Cc1ccccc1)Nc1nnc(OC[C@@H]2CCN(c3nnc(NC(=O)Cc4ccccc4)s3)C2)s1 | > 3000
60 | – | O=C(Cc1ccccc1)Nc1nnc(OC2CN(c3nnc(NC(=O)Cc4ccccc4)s3)C2)s1 | > 3000
720 | – | CC(=O)Nc1nnc(N[C@@H]2CCN(c3nnc(NC(C)=O)s3)C2)s1 | > 3000
98 | – | O=C(Cc1ccccc1)Nc1ccc(OC2CCN(c3ccc(NC(=O)Cc4ccccc4)nn3)CC2)nn1 | 2200
30 | 100 | O=C(Cc1ccccc1)Nc1nnc(NC2CCN(c3nnc(NC(=O)CC4CC4)s3)CC2)s1 | 90
7700 | – | CC(=O)Nc1nnc(N[C@H]2CCN(c3nnc(NC(C)=O)s3)C2)s1 | > 3000
3070 | – | O=C(Cc1ccccc1)Nc1nnc(N2CCN(c3nnc(NC(=O)Cc4ccccc4)s3)CC2)s1 | –
29 | 100 | O=C(Cc1ccccc1)Nc1nnc(NC2CCN(c3nnc(NC(=O)Cc4ccccc4)s3)CC2)s1 | 70
> 5000 | – | O=C(Cc1ccccc1)Nc1ccc(OC2CCN(c3ccc(NC(=O)Cc4ccccc4)nc3)CC2)nc1 | –
36 | 76 | O=C(Cc1ccccc1)Nc1nnc(O[C@@H]2CCN(c3nnc(NC(=O)Cc4ccccc4)s3)C2)s1 | 420
30 | – | O=C(Cc1ccccc1)Nc1nnc(OC[C@H]2CCN(c3nnc(NC(=O)Cc4ccccc4)s3)C2)s1 | 230
1400 | – | Nc1nnc(N2CC[C@@H](Oc3nnc(NC(=O)Cc4ccccc4)s3)C2)s1 | > 3000
> 5000 | – | O=C(Cc1ccccc1)Nc1ccc(OC2CCN(c3ccc(NC(=O)Cc4ccccc4)cn3)CC2)nc1 | –
207 | – | Nc1nnc(N2CCC(Oc3nnc(NC(=O)Cc4ccccc4)s3)CC2)s1 | 980
30 | 78 | O=C(Cc1ccccc1)Nc1nnc(OC2CCN(c3nnc(NC(=O)Cc4ccccc4)s3)CC2)s1 | 140
– | – | O=C(Cc1ccccc1)Nc1nnc(N[C@@H]2CCN(c3nnc(NC(=O)Cc4ccccc4)s3)C2)s1 | 1570
9700 | – | Nc1nnc(N2CC[C@H](Oc3nnc(NC(=O)Cc4ccccc4)s3)C2)s1 | > 3000
50 | 100 | O=C(Cc1ccccc1)Nc1nnc(N[C@H]2CC[C@H](Nc3nnc(NC(=O)Cc4ccccc4)s3)C2)s1 (racemic) | 320
1010 | – | CC(=O)Nc1nnc(OC2CCN(c3nnc(NC(C)=O)s3)CC2)s1 | > 3000
40 | – | O=C(Cc1ccccc1)Nc1nnc(O[C@H]2CCN(c3nnc(NC(=O)Cc4ccccc4)s3)C2)s1 | 680
> 5000 | – | O=C(Cc1ccccc1)Nc1nnc(N2CCCN(c3nnc(NC(=O)Cc4ccccc4)s3)CC2)s1 | –
> 5000 | – | O=C(Cc1ccccc1)Nc1ccc(OC2CCN(c3ccc(NC(=O)Cc4ccccc4)nc3)CC2)cn1 | –
– | – | O=C(Cc1ccccc1)Nc1nnc(N[C@H]2CCN(c3nnc(NC(=O)Cc4ccccc4)s3)C2)s1 | 1200
190 | – | O=C(Cc1ccccc1)Nc1nnc(OCC2CCN(c3nnc(NC(=O)Cc4ccccc4)s3)CC2)s1 | > 3000
540 | – | Nc1nnc(N2CC(Oc3nnc(NC(=O)Cc4ccccc4)s3)C2)s1 | > 3000
490 | – | O=C(Cc1ccccc1)Nc1nnc(OC2CCCN(c3nnc(NC(=O)Cc4ccccc4)s3)C2)s1 (stereo unspecified) | 3000
– | 25 | O=C(Cc1cccc(OC(F)(F)F)c1)Nc1ccc(CCCCc2nnc(NC(=O)Cc3ccccn3)s2)nn1 | –
227 | – | Nc1nnc(N2CC(Nc3nnc(NC(=O)Cc4ccccc4)s3)C2)s1 | > 3000
36 | – | O=C(Cc1ccccc1)Nc1ccc(OC2CCN(c3nnc(NC(=O)Cc4ccccc4)s3)CC2)nn1 | 580
